Test: Solubility of clozapine in different solvent systems (excess clozapine, shaken 24 hours, HPLC)
Format: physicochemical
Description: For clozapine, solutions of 20 mg/mL or more are preferred for oral administration of the solution. For soft gel capsules an even higher concentration is preferable. Therefore, a solubility study for clozapine was performed. An excess of clozapine was weighed in a HPLC vial and 1.0 mL of various solvent systems was added. Following, the mixture was placed on a mechanical shaker for 24 hours at 200 RPM and analysed by HPLC for clozapine content.

clozapine content after 24 hours (solvent system: 0.1% acetic acid in water): 4.7 mg/mL | clozapine content after 24 hours (solvent system: 1% acetic acid in water): 38.1 mg/mL | clozapine content after 24 hours (solvent system: 1% citric acid in water): 27.6 mg/mL | clozapine content after 24 hours (solvent system: 5% Transcutol P in PEG400): 91.8 mg/mL | clozapine content after 24 hours (solvent system: 5% acetic acid in water): 51.5 mg/mL | clozapine content after 24 hours (solvent system: 5% citric acid in water): 34.2 mg/mL | clozapine content after 24 hours (solvent system: 10% Transcutol P in PEG400): 91.3 mg/mL | clozapine content after 24 hours (solvent system: 10% acetic acid in water): 59.8 mg/mL | clozapine content after 24 hours (solvent system: 10% citric acid in water): 50.7 mg/mL | clozapine content after 24 hours (solvent system: 20% Kolliphor RH40/PEG400 (10:90)): 72.8 mg/mL | clozapine content after 24 hours (solvent system: 20% Transcutol P in PEG400): 99.5 mg/mL | clozapine content after 24 hours (solvent system: 20% kolliphor RH40 in water): 7.4 mg/mL | clozapine content after 24 hours (solvent system: 40% corn oil in miglyol): 8.4 mg/mL | clozapine content after 24 hours (solvent system: 50% solutol in water): 17.8 mg/mL | clozapine content after 24 hours (solvent system: 50% solutol/PEG400 (10:90)): 81.6 mg/mL | clozapine content after 24 hours (solvent system: 100% Transcutol P): 151.3 mg/mL | clozapine content after 24 hours (solvent system: Caprylocaproyl macrogol-8 glycerides (Labrasol ®)): 34.0 mg/mL | clozapine content after 24 hours (solvent system: Citrate buffer pH 3.4): 57.2 mg/mL | clozapine content after 24 hours (solvent system: Citrate buffer pH 3.7): 44.0 mg/mL | clozapine content after 24 hours (solvent system: Citrate buffer pH 4.0): 34.3 mg/mL | clozapine content after 24 hours (solvent system: Citrate buffer pH 4.7): 19.9 mg/mL | clozapine content after 24 hours (solvent system: Corn oil): 5.1 mg/mL | clozapine content after 24 hours (solvent system: N,N′-dimethyl acetamide (DMA)): 106.8 mg/mL | clozapine content after 24 hours (solvent system: N-methyl-2-pyrrolydone (NMP)): 409.7 mg/mL | clozapine content after 24 hours (solvent system: PEG200): 81.8 mg/mL | clozapine content after 24 hours (solvent system: PEG400): 77.0 mg/mL | clozapine content after 24 hours (solvent system: PEG400/34 mmol Citrate buffer, 20:80 (V/V)): 52.7 mg/mL | clozapine content after 24 hours (solvent system: PEG400/34 mmol Citrate buffer, 40:60 (V/V)): 52.3 mg/mL | clozapine content after 24 hours (solvent system: PEG400/34 mmol Citrate buffer, 60:40 (V/V)): 47.6 mg/mL | clozapine content after 24 hours (solvent system: PEG400/34 mmol Citrate buffer, 80:20 (V/V)): 49.8 mg/mL | clozapine content after 24 hours (solvent system: PEG400/Citrate buffer pH 4.0, 50:50 (V/V)): 33.4 mg/mL | clozapine content after 24 hours (solvent system: PEG400/Citrate buffer pH 4.0, 60:40 (V/V)): 29.6 mg/mL | clozapine content after 24 hours (solvent system: PEG400/Citrate buffer pH 4.0, 70:30 (V/V)): 32.1 mg/mL | clozapine content after 24 hours (solvent system: PEG400/Citrate buffer pH 4.0, 80:20 (V/V)): 44.6 mg/mL | clozapine content after 24 hours (solvent system: PEG400/Citrate buffer pH 4.0, 90:10 (V/V)): 56.2 mg/mL | clozapine content after 24 hours (solvent system: PEG400/water (50:50)): 2.3 mg/mL | clozapine content after 24 hours (solvent system: PEG400/water (60:40)): 6.5 mg/mL | clozapine content after 24 hours (solvent system: PEG400/water (70:30)): 14.0 mg/mL | clozapine content after 24 hours (solvent system: PEG400/water (80:20)): 31.1 mg/mL | clozapine content after 24 hours (solvent system: PEG600/water (90:10)): 65.2 mg/mL | clozapine content after 24 hours (solvent system: ethanol): 33.9 mg/mL | clozapine content after 24 hours (solvent system: glycerol): 0.5 mg/mL | clozapine content after 24 hours (solvent system: miglyol): 10.3 mg/mL | clozapine content after 24 hours (solvent system: water): 0.3 mg/mL
Structure (SMILES): CN1CCN(C2=Nc3cc(Cl)ccc3Nc3ccccc32)CC1 [Clozapine, 8-Chloro-11-(4-methylpiperazin-1-yl)-5H-dibenzo[b,e][1,4]diazepine]

Reference: US11518755B2, “Stable solutions of multicyclic antidepressants” (Leyden Technologies B.V., priority 2017, dated 2022)
